Molecular target: T1, Recombinant Apaf-1 produced in insect cells (rApaf-1) (Homo sapiens, UniProt O14727)
T1 construct: made in house; host or cells: insect cells (Apaf-1); E. coli (procaspase-9); cytochrome c purchased from Sigma
T1 sequence (O14727 1-1248): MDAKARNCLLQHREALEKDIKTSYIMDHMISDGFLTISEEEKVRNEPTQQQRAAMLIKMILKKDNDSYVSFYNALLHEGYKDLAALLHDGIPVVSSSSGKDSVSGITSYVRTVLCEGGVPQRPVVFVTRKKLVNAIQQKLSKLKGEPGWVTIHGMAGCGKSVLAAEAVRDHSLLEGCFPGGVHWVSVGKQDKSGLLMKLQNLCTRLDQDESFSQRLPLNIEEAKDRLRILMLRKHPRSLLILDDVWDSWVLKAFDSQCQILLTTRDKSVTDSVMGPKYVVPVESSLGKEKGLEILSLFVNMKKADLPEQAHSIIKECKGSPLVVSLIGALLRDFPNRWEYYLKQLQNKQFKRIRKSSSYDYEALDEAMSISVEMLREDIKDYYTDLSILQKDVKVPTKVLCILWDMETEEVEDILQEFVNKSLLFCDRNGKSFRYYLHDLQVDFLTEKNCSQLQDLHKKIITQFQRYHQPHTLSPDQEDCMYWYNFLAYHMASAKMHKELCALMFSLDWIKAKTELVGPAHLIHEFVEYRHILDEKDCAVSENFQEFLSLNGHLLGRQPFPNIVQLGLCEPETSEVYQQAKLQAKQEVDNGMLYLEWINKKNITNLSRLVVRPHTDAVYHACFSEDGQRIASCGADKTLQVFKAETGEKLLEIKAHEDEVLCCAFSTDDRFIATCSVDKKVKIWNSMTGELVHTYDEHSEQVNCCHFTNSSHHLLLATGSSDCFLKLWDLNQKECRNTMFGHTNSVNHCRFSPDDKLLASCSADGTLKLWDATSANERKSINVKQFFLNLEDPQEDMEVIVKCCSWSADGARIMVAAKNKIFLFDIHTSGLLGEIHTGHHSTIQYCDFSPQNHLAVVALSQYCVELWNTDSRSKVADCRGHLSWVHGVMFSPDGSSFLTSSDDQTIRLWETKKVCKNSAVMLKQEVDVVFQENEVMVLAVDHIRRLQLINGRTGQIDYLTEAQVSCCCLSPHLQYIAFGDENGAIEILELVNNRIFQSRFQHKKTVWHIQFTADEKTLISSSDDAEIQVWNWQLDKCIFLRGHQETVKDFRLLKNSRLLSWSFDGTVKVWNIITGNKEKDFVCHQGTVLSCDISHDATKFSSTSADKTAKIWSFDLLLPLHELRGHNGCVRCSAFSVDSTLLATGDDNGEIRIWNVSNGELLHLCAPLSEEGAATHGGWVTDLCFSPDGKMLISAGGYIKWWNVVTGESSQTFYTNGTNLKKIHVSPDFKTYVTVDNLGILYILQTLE
Experiment: In vitro apoptosome formation inhibition assay
Type: biochemical
Conditions: compound at 10 μM; rApaf-1 40 nM, dATP/Mg 100 μM, horse cytochrome c 0.1 μM, rprocaspase-9 0.1 μM; caspase-9 substrate Ac-LEDH-afc, afc release at 37° C.
Protocol: Recombinant Apaf-1 produced in insect cells (rApaf-1) was incubated in the presence (at a concentration of 10 μM) or absence (as control) of the compounds to be evaluated in the assay buffer (20 mM Hepes-KOH pH 7.5, 10 mM KCl, 1.5 mM MgCl2, 1 mM EDTA, 1 mM EGTA, 1 mM DTT, 0.1 mM PMSF) for 15 minutes at 30° C. The final rApaf-1 concentration was 40 nM. dATP/Mg (Sigma) and purified horse cytochrome c (Sigma) were then added achieving final concentrations of 100 μM and 0.1 μM, respectively. It was incubated for 60 minutes at 30° C. and recombinant procaspase-9 produced in E. coli (rprocaspase-9, final concentration 0.1 μM) was then added and it was incubated for 10 minutes at 30° C. before adding the caspase-9 fluorogenic substrate Ac-LEDH-afc (final concentration 50 μM). The total assay volume was 200 μL. The caspase activity was continuously monitored by means of the afc release at 37° C. in a Wallac 1420 Workstation (λexc=390 nm, λem=510 nm).
The activity values of some compounds described in the examples are indicated in the following table expressed as the percentage of Apaf-1 inhibition.

SMILES | inhibition at 10 µM
O=C(O)CN(CCc1ccc(Cl)cc1Cl)C(=O)CC1C(=O)N(CCc2ccc(Cl)cc2Cl)CC(=O)N1CCc1c[nH]c2ccccc12 (stereo not shown) [Ib.3.2, 2-(2-(1-(2-(1H-indol-3-yl)ethyl)-4-(2,4-dichlorophenethyl)-3,6-dioxopiperazin-2-yl)-N-(2,4-dichlorophenethyl)acetamido) acetic acid] | 48%
COC(=O)CN(CCc1ccc(Cl)cc1Cl)C(=O)CC1C(=O)N(CCc2ccc(Cl)cc2Cl)CC(=O)N1CCc1c[nH]c2ccccc12 (stereo not shown) [Ic.3.2, Methyl 2-(2-(1-(2-(1H-indol-3-yl)ethyl)-4-(2,4-dichlorophenethyl)-3,6-dioxopiperazin-2-yl)-N-(2,4-dichlorophenethyl)acetamido)acetate] | 29%
COc1ccc2[nH]cc(CCN3C(=O)CN(CCc4ccc(Cl)cc4Cl)C(=O)C3CC(=O)NCCc3ccc(Cl)cc3Cl)c2c1 (stereo not shown) [Id.5.2, N-(2,4-dichlorophenethyl)-2-(4-(2,4-dichlorophenethyl)-1-(2-(5-methoxy-1H-indol-3-yl)ethyl)-3,6-dioxopiperazin-2-yl)acetamide] | 40%
O=C(O)CN(CCc1ccc(Cl)cc1Cl)C(=O)CC1C(=O)N(CCc2ccc(Cl)cc2Cl)CC(=O)N1CCC(c1ccccc1)c1ccccc1 (stereo not shown) [Ib.1.2, 2-(N-(2,4-dichlorophenethyl)-2-(4-(2,4-dichlorophenethyl)-1-(3,3-diphenylpropyl)-3,6-dioxopiperazin-2-yl)acetamido) acetic acid] | 72%
COC(=O)CN(CCc1ccc(Cl)cc1Cl)C(=O)CC1C(=O)N(CCc2ccc(Cl)cc2Cl)CC(=O)N1CCc1c[nH]c2ccc(OC)cc12 (stereo not shown) [Ic.5.2, Methyl 2-(N-(2,4-dichlorophenethyl)-2-(4-(2,4-dichlorophenethyl)-1-(2-(5-methoxy-1H-indol-3-yl)ethyl)-3,6-dioxopiperazin-2-yl)acetamido)acetate] | 23%
NC(=O)CN(CCc1ccc(Cl)cc1Cl)C(=O)CC1C(=O)N(CCc2ccc(Cl)cc2Cl)CC(=O)N1CCc1ccc(-c2ccccc2)cc1 (stereo not shown) [Ia.6.2, 2-(1-(2-([1,1′-biphenyl]-4-yl)ethyl)-4-(2,4-dichlorophenethyl)-3,6-dioxopiperazin-2-yl)-N-(2-amino-2-oxoethyl)-N-(2,4-dichlorophenethyl)acetamide] | 29%
O=C(O)CN(CCc1ccc(Cl)cc1Cl)C(=O)CC1C(=O)N(CCc2ccc(Cl)cc2Cl)CC(=O)N1Cc1ccc(F)cc1 (stereo not shown) [Ib.2.2, 2-(N-(2,4-dichlorophenethyl)-2-(4-(2,4-dichlorophenethyl)-1-(4-fluorobenzyl)-3,6-dioxopiperazin-2-yl)acetamido) acetic acid] | 28%
CCC(C)N(CC(N)=O)C(=O)CC1C(=O)N(CCc2ccc(Cl)cc2Cl)CC(=O)N1CCC(c1ccccc1)c1ccccc1 (stereo not shown) [I.1.20, N-(2-amino-2-oxoethyl)-N-(sec-butyl)-2-(4-(2,4-dichlorophenethyl)-1-(3,3-diphenylpropyl)-3,6-dioxopiperazin-2-yl)acetamide] | 36%
NC(=O)CN(CCc1ccccn1)C(=O)CC1C(=O)N(CCc2ccc(Cl)cc2Cl)CC(=O)N1CCC(c1ccccc1)c1ccccc1 (stereo not shown) [I.1.16, N-(2-amino-2-oxoethyl)-2-(4-(2,4-dichlorophenethyl)-1-(3,3-diphenylpropyl)-3,6-dioxopiperazin-2-yl)-N-(2-(pyridin-2-yl)ethyl)acetamide] | 46%
NCCCCC(NC(=O)CN(CCc1ccc(Cl)cc1Cl)C(=O)CC1C(=O)N(CCc2ccc(Cl)cc2Cl)CC(=O)N1CCC(c1ccccc1)c1ccccc1)C(N)=O (stereo not shown) [If.1.2, 6-amino-2-(2-(N-(2,4-dichlorophenethyl)-2-(4-(2,4-dichlorophenethyl)-1-(3,3-diphenylpropyl)-3,6-dioxopiperazin-2-yl)acetamido)acetamido)hexanamide] | 80%
